Test results as given in patent publication EP4578855A1, “PROLYL HYDROXYLASE INHIBITOR AND USE THEREOF” (Suzhong Pharmaceutical Group Co., Ltd., priority 2022, dated 2024).
Values joined by “and” are separate entries in the source; they are usually repeats but may differ in a detail not shown here. Equal entries are not always repeated.

Key:
EPO (erythropoietin) [1] = test: Pharmacological evaluation: influence of continuous administration on EPO level; type: in vivo, SD rats; conditions: for EPO levels in serum of the rats: after 14 days of administration; for EPO levels in plasma of the rats: after administration, compared with the group of positive drug Enarodustat; for EPO level after 14 days of administration: individual rats 1-6; for EPO level after 14 days of administration / EPO level after 14 days of administration, Mean: 0.3 mg/mL, 10 mL/kg, once a day for 14 consecutive days, blood 4 hours after the drug on the 14th day, 2904.6 pg/mL was an upper limit of measurement; for EPO level after 14 days of administration, Mean: mean of 6 rats
Description: This experiment was intended to evaluate an influence of continuous administration of the compounds prepared in Embodiments 12, 13 and 14 on EPO (erythropoietin) in SD rats.
• Line: SD (Sprague Dawley) • Weeks of age and weight: 8 weeks, weight 200 g to 220 g • Sex: male • Animal source: Beijing Vital River Laboratory Animal Technology Co., Ltd.
• Positive drug: Enarodustat • Description: commercialized drugs approved for marketing in Japan • Specification and content: 2 mg JTZ-951(Enarodustat), 140 capsules/box
After a week of adaptive feeding, SD rats were randomly divided into 3 groups, 6 rats in each group, which were namely a blank group, a positive drug group (Enarodustat) and a group of compound in Embodiment 12. An Enarodustat tablet was crushed by a mortar, then quantitatively added with 0.5% methyl cellulose, and magnetically stirred and mixed evenly; and the compound prepared in Embodiment 12 was weighed, then quantitatively added with 0.5% methyl cellulose, and magnetically stirred and mixed evenly. […] The drug was given once a day for 14 consecutive days, and blood was taken to measure an EPO level 4 hours after the drug was given on the 14th day.

[2] = system: human hepatocarcinoma cell line Hep3B; test: In-vitro erythropoietin (EPO)-inducing activity experiment (EPO ELISA, OD450); type: cell-based; conditions: Hep3B cells, incubated 24 hours at 37°C
Description: In-vitro erythropoietin (EPO)-inducing activities of the compounds in Embodiments 10 to 12 were evaluated by using a human hepatocarcinoma cell line Hep3B (ATCC). Hep3B cells were cultured in an EMEM medium (Eagle's Minimum Essential Medium) at 37°C in the presence of 10% fetal bovine serum (FBS). Experimental steps were as follows: • (1) Cell preparation: the cells were inoculated in a 96-well plate, and cell plating was carried out according to an amount of 100 µL per well based on 2*10~4 per well. • (2) Preparation of compound concentration gradient: 100 µM, 20 µM, 2-parallel well detection. A solution with 200 times final concentration was prepared in a 96-well plate, the compound was diluted 200/3 times by using a cell culture medium, and then 50 µL of the compound was sucked for drug administration to the cells. 50 µL of DMSO-containing culture solution was added into a negative control well to make a final concentration contain 5 ‰ DMSO, and 50 µL of positive compound with the highest concentration was added into a positive control well to incubate the cells at 37°C for 24 hours. • (3) The reaction plate was washed twice with 1X Wash Buffer according to about 400 µL per well. • (4) 100 µL of diluted standard (comprising a standard blank control) was added into an appropriate well. • (5) 50 µL of sample and 50 µL of Sample Diluent were added into a sample well. • (6) 50 µL of 1X Biotin Conjugated Antibody were added into all wells to incubate the cells at room temperature for 1 hour. • (7) The reaction plate was washed with 1X Wash Buffer for 6 times according to about 400 µL per well. • (8) 100 µL of 1X Streptavidin-HRP was added in to each well to incubate the cells at room temperature for 15 minutes. • (9) The reaction plate was washed with 1X Wash Buffer for 6 times according to about 400 µL per well. • (10) 100 µL of TMB Substrate Solution was added into each well to incubate the cells at room temperature for 10 minutes. • (11) 100 µL of Stop Solution was added into each well. • (12) OD450 was read by EnSight.
The EPO-inducing activities of the compounds were expressed as the concentration for 50% of maximal effect (EC50).

[3] = Subacute toxicity test, 14 consecutive days; type: in vivo; conditions: SD rats, 10 mg/kg once a day for 14 consecutive days, in words
Source text: A proper amount of the compound in Embodiment 13 and a proper amount of the compound in Embodiment 14 were weighed by a balance and respectively placed into proper glass bottles, then DMSO, Solutol HS-15 and 0.9% physiological saline (in a ratio of v: v: v = 5%: 10%: 85%) were sequentially added into the glass bottles, and vortexed and stirred, and a drug dissolution condition was continuously concerned in the stirring process until the compounds were completely dissolved/suspended. Finally, drug solutions of the compound in Embodiment 13 and the compound in Embodiment 14 with a concentration of 0.67 mg/mL were prepared for current use.
An animal room was well ventilated, equipped with an air-conditioner, kept at a temperature of 20°C and 25°C and a humidity of 40% to 70%, and in light and dark conditions for 12 hours respectively, and the animals could eat and drink freely. SD rats with good physical signs could be selected for this experiment after being adaptively fed for at least 3 days before administration. Table 23 Source and number of experimental animals
Any operation on the experimental animals in this experiment met the requirements of the "Regulations for the Administration of Affairs Concerning Experimental Animals" issued by the Ministry of Science and Technology of the People's Republic of China. In this experiment, a solvent control group, an administration group of compound in Embodiment 13 and an administration group of compound in Embodiment 14 were set up. Administration dosages of the administration group of compound in Embodiment 13 and the administration group of compound in Embodiment 14 were (10 mg/kg) once a day for 14 consecutive days, while the same amount of blank solvent was given to the blank control group, and administration volumes were all 15 mL/kg. After each administration, symptoms and degrees of toxic reaction of the animals were observed. Recovery observation was carried out for 7 days after the last administration. […]
During the experiment, experimenters and veterinarians should observe physical signs and health conditions of the experimental animals continuously. Any abnormal manifestations of the animals, such as pain, depression and decreased activity should be recorded in original records of the experiment. […]
During the experiment, all animals were observed beside cages at least twice a day, and observed continuously for 2 hours after the drug administration. During the drug administration, if the animals had serious side effects or died, observation results should be recorded in a corresponding form. […]
The animals should be weighed before daily drug administration for 14 consecutive days, and the weights were recorded in a corresponding form. Food intakes of the experimental animals were detected during the experiment. […]

[4] = Pharmacokinetic evaluation after intravenous injection or intragastric administration, plasma LC-MS/MS; type: in vivo, SD rats
Source text: After the compounds were given to SD rats by intravenous injection or intragastric administration, concentrations of related compounds in plasma were detected by an LC-MS/MS method, and pharmacokinetics and absolute bioavailability of the compounds prepared in Embodiments 13 and 14 in the rats were preliminarily evaluated.
2. Line: Sprague Dawley rats, sex: male, weight: 200 g to 250 g
Pharmacokinetic characteristics of rodents after intravenous injection and oral administration of the compounds were tested by a standard scheme. In the experiment, a candidate compound was prepared into a clear solution, and given to the rats by single intravenous injection and intragastric administration. A solvent for intravenous injection was a certain proportion of N,N-dimethylacetamide (DMA) and 10% Solutol HS15 solution, and a solvent for oral administration was a certain proportion of sodium carboxymethyl cellulose (CMC) suspension. 5 minutes, 15 minutes, 30 minutes, 1 hour, 2 hours, 4 hours, 6 hours, 8 hours, 10 hours and 24 hours after drug administration, blood samples of the animals were respectively collected into K2EDTA anticoagulation tubes, which were temporarily stored on ice until centrifugation.

EPO (erythropoietin) [5] = test: Pharmacological evaluation: influence of continuous administration on EPO level; type: in vivo, SD rats; conditions: SD rat, continuous chronic administration, in words
PHD2 enzyme = molecular target: T1, PHD2 enzyme (Homo sapiens, UniProt Q9GZT9); test: Detection of PHD2 enzyme activity inhibition (FITC-HIF1α tracer, mP read-out); type: biochemical; conditions: test concentration from 10 µM, diluted 3 times into 10 concentrations; read-out: IC50
T1 construct: purchased Active motif
Description: (1) A 1×Assay buffer was prepared. […] 100 nL of 100% DMSO was added into a negative control well and a positive control well respectively. (3) An enzyme solution with 2 times final concentration was prepared with the 1×Assay buffer. (4) 5 µL of the enzyme solution with 2 times final concentration was added into a compound well and the positive control well respectively. (5) 5 µL of the 1 ×Assay buffer was added into the negative control well. (6) The 384-well plate was centrifuged at 1000 rpm for 30 seconds, oscillated and mixed evenly, and then incubated for 15 minutes. (7) A tracer solution with 2 times final concentration was prepared with the 1×Assay buffer, and 5.0 µL of the tracer solution with 2 times final concentration was added to start the reaction.

[6] = SD rats, in words, compared with Enarodustat in the table
[7] = male SD rats, route and dose not given

T1 sequence (Q9GZT9 whole entry, species assumed): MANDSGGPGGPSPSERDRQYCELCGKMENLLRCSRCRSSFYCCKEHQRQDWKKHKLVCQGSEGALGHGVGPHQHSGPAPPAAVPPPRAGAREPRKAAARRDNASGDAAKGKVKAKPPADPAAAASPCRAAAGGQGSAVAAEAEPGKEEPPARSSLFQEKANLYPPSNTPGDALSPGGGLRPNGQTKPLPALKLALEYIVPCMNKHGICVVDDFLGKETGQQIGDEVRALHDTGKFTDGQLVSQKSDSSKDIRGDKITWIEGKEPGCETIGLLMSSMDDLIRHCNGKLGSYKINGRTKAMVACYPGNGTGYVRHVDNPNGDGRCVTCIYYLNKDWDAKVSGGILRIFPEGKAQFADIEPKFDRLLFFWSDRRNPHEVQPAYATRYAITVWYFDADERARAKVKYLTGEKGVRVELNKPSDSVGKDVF

| Structure (SMILES) | EPO levels in serum of the rats (EPO (erythropoietin) [1]; in words) | EPO levels in plasma of the rats (EPO (erythropoietin) [1]; in words) | EPO level after 14 days of administration (EPO (erythropoietin) [1]) | EPO level after 14 days of administration, Mean (EPO (erythropoietin) [1]) [pg/mL] | EC50 [2] [µM] | toxicities ([3]; compared with Enarodustat) | gastrointestinal findings [3] | half-lives [4, 6] | in-vivo exposure [4, 6] | Bioavailability F ([4]; male SD rats, intragastric vs intravenous) [%] | Concentration integral AUC [4, 7] [ng·h/mL] | Half-life period T1/2 [4, 7] [h] | EPO level (EPO (erythropoietin) [1]; SD rat, continuous chronic administration, in words) | hemoglobin level (EPO (erythropoietin) [5]) | EC50 ([2]; Homo sapiens, Hep3B, 24 h) [µM] | IC50 (PHD2 enzyme) [µM] |
| --- | --- | --- | --- | --- | --- | --- | --- | --- | --- | --- | --- | --- | --- | --- | --- | --- |
| O=C(O)CNC(=O)c1c(O)cc(C2CCc3ccccc3C2)n2ncnc12 (single isomer, unassigned) [Compound in Embodiment 14, [(7-hydroxy-5-(1,2,3,4-tetrahydronaphthalene-2-yl)-[1,2,4]triazolo[1,5-a]pyridine-8-carbonyl)amino]acetic acid] | increased significantly | significantly higher | 2279.1 pg/mL and 2095.6 pg/mL and 1982.7 pg/mL and 1943.6 pg/mL and 2038.9 pg/mL and 2137.6 pg/mL | 2079.6 | 4.16 | lower than that of Enarodustat | no obvious gastrointestinal necrosis, and bleeding spots or flatulence in a black stomach part | obviously longer | higher | 31.3 | 15740 | 2.43 | – | – | – | – |
| O=C(O)CNC(=O)c1c(O)cc(C2CCc3ccccc3C2)n2ncnc12 (centres unmarked) [Compound in Embodiment 12, [(7-hydroxy-5-(1,2,3,4-tetrahydronaphthalene-2-yl)-[1,2,4]triazolo[1,5-a]pyridine-8-carbonyl)amino]acetic acid] | increased significantly | significantly higher | 2649.3 pg/mL and ≥ 2904.6 pg/mL (4×) and 2882.6 pg/mL | 2858.4 | – | – | – | – | – | – | – | – | significantly increase | significantly increase | 6.79 | 0.0343 |
